From ChEMBL document CHEMBL1201862, “PubChem BioAssay data set” (2004)
Activity calls are given as the source filed them.

Experiments:
[1] = HEp-2 cell cytotoxicity, dose response, cytotoxicity control for RSV inhibitor project, HTS (AID 2410); type: functional; settings: human respiratory syncytial virus
[2] = target: T1, Polyadenylate-binding protein 1 (Homo sapiens, UniProt P11940); test: PABP1 MLLE–PAM2 interaction inhibitors, dose response, miRNA deadenylation inhibitor project, biochemical, fluorescence polarization, Cy5-PAM2 peptide, secondary (AID 602260); type: functional; settings: read-out: IC50_Mean
T1 sequence (P11940 whole entry): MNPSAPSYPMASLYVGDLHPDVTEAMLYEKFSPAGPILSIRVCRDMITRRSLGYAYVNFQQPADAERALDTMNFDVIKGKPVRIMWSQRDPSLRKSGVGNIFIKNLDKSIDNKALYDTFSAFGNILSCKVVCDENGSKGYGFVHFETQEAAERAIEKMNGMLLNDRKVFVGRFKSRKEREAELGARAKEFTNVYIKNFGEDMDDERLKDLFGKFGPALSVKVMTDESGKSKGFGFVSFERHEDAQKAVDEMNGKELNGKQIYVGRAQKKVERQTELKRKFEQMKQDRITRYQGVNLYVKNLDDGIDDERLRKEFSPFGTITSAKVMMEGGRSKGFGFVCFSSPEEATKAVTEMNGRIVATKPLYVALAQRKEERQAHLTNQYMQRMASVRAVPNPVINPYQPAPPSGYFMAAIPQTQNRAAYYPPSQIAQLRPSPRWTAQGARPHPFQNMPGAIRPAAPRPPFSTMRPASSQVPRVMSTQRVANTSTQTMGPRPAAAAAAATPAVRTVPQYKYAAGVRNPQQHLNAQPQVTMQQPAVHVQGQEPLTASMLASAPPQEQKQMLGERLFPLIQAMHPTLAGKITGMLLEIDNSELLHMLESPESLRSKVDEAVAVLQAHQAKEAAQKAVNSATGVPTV

[3] = target: T1, Polyadenylate-binding protein 1; test: PABP1 MLLE–PAM2 binding inhibitor potency, dose response, biochemical, fluorescence polarization, FITC-PAM2 peptide (AID 602259); type: functional; settings: read-out: IC50_Mean
cells [4] = test: cells
[5] = target: T2, Tyrosine-protein phosphatase non-receptor type 7 (Homo sapiens, UniProt P35236); test: inhibitors of human HePTP phosphatase, […], biochemical, absorbance, leukemia target (AID 521); type: functional
T2 sequence (P35236 whole entry): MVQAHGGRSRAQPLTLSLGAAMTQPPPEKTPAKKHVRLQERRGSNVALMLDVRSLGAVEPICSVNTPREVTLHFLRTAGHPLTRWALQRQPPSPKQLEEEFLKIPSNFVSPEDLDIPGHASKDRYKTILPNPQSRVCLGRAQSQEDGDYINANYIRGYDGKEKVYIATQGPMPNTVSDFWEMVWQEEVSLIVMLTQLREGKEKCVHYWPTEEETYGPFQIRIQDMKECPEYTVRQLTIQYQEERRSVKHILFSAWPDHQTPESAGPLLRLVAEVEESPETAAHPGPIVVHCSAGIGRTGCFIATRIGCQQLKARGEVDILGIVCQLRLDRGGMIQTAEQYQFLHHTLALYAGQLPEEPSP

[6] = A Cell Based Secondary Assay To Explore Cytotoxicity of Compounds that Sensitize Mycobacterium Tuberculosis to Beta-Lactam Antibiotics.; type: functional
[7] = target: Glyceraldehyde-3-phosphate dehydrogenase (Homo sapiens, UniProt P04406)
Glyceraldehyde-3-phosphate dehydrogenase, sequence (P04406 whole entry): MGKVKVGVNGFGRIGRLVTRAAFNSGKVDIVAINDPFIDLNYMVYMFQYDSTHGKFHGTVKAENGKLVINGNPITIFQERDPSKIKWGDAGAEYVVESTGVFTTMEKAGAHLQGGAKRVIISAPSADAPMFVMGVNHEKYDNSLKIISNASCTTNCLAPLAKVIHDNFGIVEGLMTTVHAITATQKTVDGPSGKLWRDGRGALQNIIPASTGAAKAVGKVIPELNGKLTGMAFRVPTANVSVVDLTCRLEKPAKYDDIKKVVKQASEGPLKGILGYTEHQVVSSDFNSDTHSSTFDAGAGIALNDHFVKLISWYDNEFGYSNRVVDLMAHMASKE

Bcl-2-related protein A1 [8] = target: T3, Bcl-2-related protein A1 (Mus musculus, UniProt Q07440); test: Bfl-1 inhibitors blocking BH3 peptide binding, confirmation, biochemical, TR-FRET, mouse Bfl-1 (AID 621);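 note: TR-FRET binding of GST-Bfl-1 to FITC-labelled Bid peptide via terbium antibody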
T3 sequence (Q07440 whole entry): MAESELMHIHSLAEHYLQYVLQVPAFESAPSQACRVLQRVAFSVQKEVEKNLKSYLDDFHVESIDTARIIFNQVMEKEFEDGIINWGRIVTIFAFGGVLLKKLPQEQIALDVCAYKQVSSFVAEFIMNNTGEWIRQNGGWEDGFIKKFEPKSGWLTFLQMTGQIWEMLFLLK

Bcl-2-related protein A1 [9] = target: T3, Bcl-2-related protein A1; test: Bfl-1 binding inhibitors, SAR follow-up, biochemical, fluorescence polarization (AID 1070)
Ephrin type-A receptor 4 = Ephrin type-A receptor 4 (Mus musculus, UniProt Q03137); test: inhibitors of EphA4 binding to KYL peptide, primary screen, biochemical, colorimetric, mouse EphA4 (AID 689); type: functional
Ephrin type-A receptor 4, sequence (Q03137 whole entry): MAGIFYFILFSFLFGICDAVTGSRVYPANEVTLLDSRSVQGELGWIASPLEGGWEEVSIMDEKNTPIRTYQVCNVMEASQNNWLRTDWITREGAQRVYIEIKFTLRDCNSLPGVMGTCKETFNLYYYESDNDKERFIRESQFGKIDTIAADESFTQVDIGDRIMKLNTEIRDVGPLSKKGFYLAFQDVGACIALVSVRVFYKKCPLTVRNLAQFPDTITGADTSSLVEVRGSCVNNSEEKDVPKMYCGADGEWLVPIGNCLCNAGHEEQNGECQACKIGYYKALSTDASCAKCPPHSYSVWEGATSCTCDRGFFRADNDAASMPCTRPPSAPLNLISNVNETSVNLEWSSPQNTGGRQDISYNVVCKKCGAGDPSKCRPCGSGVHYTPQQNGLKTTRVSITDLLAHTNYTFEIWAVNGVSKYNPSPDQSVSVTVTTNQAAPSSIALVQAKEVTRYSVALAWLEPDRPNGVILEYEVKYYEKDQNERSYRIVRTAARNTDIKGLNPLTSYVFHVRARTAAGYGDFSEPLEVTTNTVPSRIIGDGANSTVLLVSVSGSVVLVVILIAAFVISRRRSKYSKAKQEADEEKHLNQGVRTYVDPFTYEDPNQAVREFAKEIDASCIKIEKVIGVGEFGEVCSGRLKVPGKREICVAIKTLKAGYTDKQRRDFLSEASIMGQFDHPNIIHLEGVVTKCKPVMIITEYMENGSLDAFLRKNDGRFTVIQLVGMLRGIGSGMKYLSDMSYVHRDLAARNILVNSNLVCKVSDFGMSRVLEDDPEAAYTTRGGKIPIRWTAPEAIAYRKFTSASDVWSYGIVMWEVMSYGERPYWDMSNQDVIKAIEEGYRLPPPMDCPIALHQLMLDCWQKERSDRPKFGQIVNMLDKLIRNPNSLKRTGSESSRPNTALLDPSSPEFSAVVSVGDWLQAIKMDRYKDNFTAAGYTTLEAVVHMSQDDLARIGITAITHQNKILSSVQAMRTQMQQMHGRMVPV

[10] = target: E3 ubiquitin-protein ligase Mdm2 (Homo sapiens, UniProt Q00987); test: enhancers of MDM2-luciferase reporter signal, concentration-effect titration, project on inhibitors of MDM2 ubiquitin ligase, cellular assay, luminescent readout, 384-well plate format (AID 1394); type: functional;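 note: MDM2 E3 inhibitors raise luminescence so EC50 is for signal enhancement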
E3 ubiquitin-protein ligase Mdm2, sequence (Q00987 whole entry): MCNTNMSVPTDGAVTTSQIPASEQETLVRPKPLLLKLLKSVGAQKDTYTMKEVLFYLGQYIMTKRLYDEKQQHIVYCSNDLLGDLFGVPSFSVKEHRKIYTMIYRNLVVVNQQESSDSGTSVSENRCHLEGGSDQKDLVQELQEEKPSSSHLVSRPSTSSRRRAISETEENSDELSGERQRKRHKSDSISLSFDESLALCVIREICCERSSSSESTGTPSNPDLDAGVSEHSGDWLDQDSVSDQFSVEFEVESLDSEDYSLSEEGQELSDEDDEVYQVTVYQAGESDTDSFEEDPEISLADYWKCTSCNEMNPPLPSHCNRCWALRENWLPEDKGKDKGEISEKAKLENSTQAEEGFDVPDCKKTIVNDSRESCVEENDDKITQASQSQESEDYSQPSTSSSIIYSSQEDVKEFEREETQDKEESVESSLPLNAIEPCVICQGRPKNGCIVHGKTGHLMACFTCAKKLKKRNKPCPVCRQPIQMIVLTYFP

BJ [11] = test: cytotoxicity toward BJ-TERT fibroblasts, dose response, cell-based, RAS-independent, luminescence (AID 1933); type: functional; settings: Homo sapiens
[12] = target: T4, Heat shock factor protein 1 (Mus musculus, UniProt P38532); test: inhibition of MG132-induced HSE-luciferase signal, confirmation, cell-based, NIH3T3, luminescence, dose retest (AID 2382); type: functional;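 note: NIH3T3 fibroblasts with HSF1-driven luciferase reporter stressed by proteasome inhibitor MG132; luminescence from HSF1-driven luciferase expression after 8 hours of MG132 stress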
T4 sequence (P38532 whole entry): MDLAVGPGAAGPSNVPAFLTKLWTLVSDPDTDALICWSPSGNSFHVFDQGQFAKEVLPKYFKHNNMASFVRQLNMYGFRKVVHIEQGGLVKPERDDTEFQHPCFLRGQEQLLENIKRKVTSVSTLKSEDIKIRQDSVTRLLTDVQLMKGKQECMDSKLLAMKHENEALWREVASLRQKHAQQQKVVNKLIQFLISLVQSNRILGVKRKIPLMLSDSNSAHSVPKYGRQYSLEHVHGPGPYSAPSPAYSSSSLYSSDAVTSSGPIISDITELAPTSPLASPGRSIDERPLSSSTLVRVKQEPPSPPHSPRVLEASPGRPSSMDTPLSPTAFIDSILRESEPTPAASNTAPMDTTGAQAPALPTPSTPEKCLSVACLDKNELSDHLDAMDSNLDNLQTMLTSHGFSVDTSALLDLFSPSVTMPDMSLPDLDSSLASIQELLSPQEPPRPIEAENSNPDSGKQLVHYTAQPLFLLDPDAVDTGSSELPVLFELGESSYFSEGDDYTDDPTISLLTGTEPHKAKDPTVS

BJ [13] = test: cells; type: functional, cell-based; settings: Homo sapiens
BJ [14] = test: cytotoxicity toward BJ-TERT-LT-ST fibroblasts, dose response, cell-based, RAS-independent, luminescence (AID 1935); type: functional; settings: Homo sapiens;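 note: BJ fibroblasts immortalized with TERT plus LT and ST oncogenes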
[15] = cytotoxicity toward DRD oncogenic fibroblasts, dose response, cell-based, non-viral oncogenic, luminescence (AID 1934); type: functional; settings: Homo sapiens
[16] = cytotoxicity in HEK-293T cells, dose response, cytotoxicity control for TCR NF-kB inhibitor project, luminescence, T-cell screen hits (AID 489026); type: functional, cell-based;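 note: cells exposed to compound about 14 hours before the viability readout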
[17] = Shn3 3'UTR reporter inhibitors, dose response, cell-based, Clone20 osteoblasts, firefly luciferase, cherry-picked (AID 624132); type: functional;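 note: firefly luciferase luminescence from reporter carrying the Shn3 3'UTR in osteoblasts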
[18] = HepG2 cell cytotoxicity, dose response, cytotoxicity control for Shn3 inhibitor project, CellTiter-Glo, cherry-picked (AID 624134); type: functional, cell-based
[19] = control 3'UTR Renilla luciferase suppression, dose response, counter-screen for Shn3 inhibitor project, cell-based, Clone20-Shn3RL, cherry-picked (AID 624133); type: functional
[20] = target: T5, Corticotropin-releasing factor receptor 2/Corticotropin-releasing factor-binding protein (Homo sapiens, UniProt P24387+Q13324); test: activators of CRF receptor 2 with binding protein – uHTS hits, confirmation (AID 602473); type: functional; settings: read-out: EC50_Mean
T5 sequence (Q13324 whole entry): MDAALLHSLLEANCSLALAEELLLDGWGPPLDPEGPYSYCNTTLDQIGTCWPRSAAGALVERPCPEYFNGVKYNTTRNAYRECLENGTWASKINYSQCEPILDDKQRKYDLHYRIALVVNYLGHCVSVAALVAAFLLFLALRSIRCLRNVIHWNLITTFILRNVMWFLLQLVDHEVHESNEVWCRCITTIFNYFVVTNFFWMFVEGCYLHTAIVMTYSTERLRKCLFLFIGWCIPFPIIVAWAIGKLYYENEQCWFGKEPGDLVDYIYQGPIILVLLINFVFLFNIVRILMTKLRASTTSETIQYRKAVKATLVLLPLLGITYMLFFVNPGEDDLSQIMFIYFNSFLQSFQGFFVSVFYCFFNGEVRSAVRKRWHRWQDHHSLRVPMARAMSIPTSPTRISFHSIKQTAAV
T5 sequence (P24387 whole entry): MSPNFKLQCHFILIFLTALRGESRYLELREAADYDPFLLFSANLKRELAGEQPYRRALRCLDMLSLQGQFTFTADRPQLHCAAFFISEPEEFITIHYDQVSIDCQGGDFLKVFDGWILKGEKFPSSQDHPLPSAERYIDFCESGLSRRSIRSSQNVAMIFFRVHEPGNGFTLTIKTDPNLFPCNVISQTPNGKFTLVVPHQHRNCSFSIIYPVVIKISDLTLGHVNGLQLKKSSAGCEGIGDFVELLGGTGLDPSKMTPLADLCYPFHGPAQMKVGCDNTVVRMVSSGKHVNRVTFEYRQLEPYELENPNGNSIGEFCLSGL

Vasopressin V1a receptor = Vasopressin V1a receptor (Homo sapiens, UniProt P37288); test: Counterscreen for Oxytocin Receptor (OXTR) agonists: Fluorescence-based cell-based high throughput dose response assay to identify agonists of the vasopressin 1 receptor (V1R). [Related pubchem assays: 2435 (Primary screen (OXTR agonists in singlicate)), 434991 (Counterscreen (V1R agonists in triplicate)), 2482 (Summary (OXTR agonists)) …; type: functional
Vasopressin V1a receptor, sequence (P37288 whole entry): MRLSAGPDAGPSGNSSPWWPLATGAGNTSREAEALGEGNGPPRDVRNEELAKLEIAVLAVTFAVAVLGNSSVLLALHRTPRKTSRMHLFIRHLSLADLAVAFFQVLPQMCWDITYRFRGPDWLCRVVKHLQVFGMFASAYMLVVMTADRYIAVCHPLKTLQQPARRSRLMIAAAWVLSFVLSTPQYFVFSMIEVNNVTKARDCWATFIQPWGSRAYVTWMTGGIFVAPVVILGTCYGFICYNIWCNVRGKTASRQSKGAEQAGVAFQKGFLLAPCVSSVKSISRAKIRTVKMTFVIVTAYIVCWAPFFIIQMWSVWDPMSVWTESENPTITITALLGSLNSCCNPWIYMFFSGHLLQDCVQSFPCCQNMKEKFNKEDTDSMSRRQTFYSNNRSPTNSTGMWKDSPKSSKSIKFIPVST

Oxytocin receptor = Oxytocin receptor (Homo sapiens, UniProt P30559); test: Fluorescence-based cell-based high throughput dose response assay for agonists of the Oxytocin Receptor (OXTR). [Related pubchem assays: 2435 (Primary screen (OXTR agonists in singlicate)), 434991 (Counterscreen (V1R agonists in triplicate)), 2482 (Summary (OXTR agonists)), 434963 (Confirmation screen (OXTR agonists in triplicate))]; type: functional
Oxytocin receptor, sequence (P30559 whole entry): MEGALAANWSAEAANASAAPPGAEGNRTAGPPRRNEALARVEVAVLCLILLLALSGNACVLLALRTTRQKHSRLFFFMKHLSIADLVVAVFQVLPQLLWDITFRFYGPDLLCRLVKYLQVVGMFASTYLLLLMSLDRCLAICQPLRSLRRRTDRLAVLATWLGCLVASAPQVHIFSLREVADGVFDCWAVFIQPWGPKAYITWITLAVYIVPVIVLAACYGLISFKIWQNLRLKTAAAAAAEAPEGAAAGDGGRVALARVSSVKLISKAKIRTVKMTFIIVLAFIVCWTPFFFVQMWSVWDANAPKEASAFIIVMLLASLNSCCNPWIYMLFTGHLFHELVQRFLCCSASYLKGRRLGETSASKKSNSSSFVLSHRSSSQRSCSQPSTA

INS1 = test: beta cell apoptosis inhibitors, cytokine rescue, dose response, luminescence, retest (AID 449756); type: functional, cell-based; settings: Rattus norvegicus;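 note: cell death triggered by IL-1 beta plus TNF-alpha plus IFN-gamma mixture; protective hits raise ATP signal compared with cytokine alone wells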
[21] = Luminescence Cell-Based Dose Response to Identify Activators of 5'UTR Stem-Loop Driven Prion Protein mRNA Translation in H4-C Neuroglioblastoma Cells. [Related pubchem assays: 1829 (Project Summary), 1814 (Primary HTS)]; type: functional
[22] = Luminescence Cell-Based Dose Confirmation HTS to Identify Activators of 5'UTR Stem-Loop Driven Alpha-Synuclein mRNA Translation in H4 Neuroglioblastoma Cells. [Related pubchem assays: 1829 (Project Summary), 1814 (Primary HTS)]; type: functional
[23] = Luminescence Cell-Based Dose Response HTS to Identify Activators of Luciferase Translation or Activity in H4 […] Cells. [Related pubchem assays: 1829 (Project Summary), 1814 (Primary HTS)]; type: functional
H4 = test: Luminescence Cell-Based Dose Response HTS to Identify Activators of 5'UTR Stem-Loop Driven Prion Protein mRNA Translation in H4 Neuroglioblastoma Cells. [Related pubchem assays: 1829 (Project Summary), 1814 (Primary HTS)]; type: functional; settings: Homo sapiens
[24] = Luminescence Cell-Based Dose Response to Identify Activators of Luciferase Translation or Activity in H4-C Neuroglioblastoma Cells. [Related pubchem assays: 1829 (Project Summary), 1814 (Primary HTS)]; type: functional
[25] = microbe, parasite or virus in culture; type: functional; settings: Mycobacterium tuberculosis
[26] = Luminescence Cell-Based Dose Confirmation to Identify Activators of 5'UTR Stem-Loop Driven Alpha-Synuclein mRNA Translation in H4 Neuroglioblastoma Cells. [Related pubchem assays: 1829 (Project Summary), 1814 (Primary HTS)]; type: functional
[27] = human group III sPLA2 inhibitors, dose response, biochemical, QFRET, IC50 (AID 743457);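 note: green fluorescence rise as the enzyme cleaves BODIPY PC-A2 in liposomes; potency for inhibition of the enzyme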
[28] = target: T6, Oxysterols receptor LXR-beta (Homo sapiens, UniProt P55055); type: functional, cell-based;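 note: Cell-based luminescence dose-response assay of agonist activity at LXR, run as a confirmatory counterscreen to a daf-12 agonist screen; HEK293 cells with Gal4-LXR fusion and GAL4-driven luciferase reporter; agonist potency from rising luciferase signal of a Gal4-LXR reporter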
T6 sequence (P55055 whole entry): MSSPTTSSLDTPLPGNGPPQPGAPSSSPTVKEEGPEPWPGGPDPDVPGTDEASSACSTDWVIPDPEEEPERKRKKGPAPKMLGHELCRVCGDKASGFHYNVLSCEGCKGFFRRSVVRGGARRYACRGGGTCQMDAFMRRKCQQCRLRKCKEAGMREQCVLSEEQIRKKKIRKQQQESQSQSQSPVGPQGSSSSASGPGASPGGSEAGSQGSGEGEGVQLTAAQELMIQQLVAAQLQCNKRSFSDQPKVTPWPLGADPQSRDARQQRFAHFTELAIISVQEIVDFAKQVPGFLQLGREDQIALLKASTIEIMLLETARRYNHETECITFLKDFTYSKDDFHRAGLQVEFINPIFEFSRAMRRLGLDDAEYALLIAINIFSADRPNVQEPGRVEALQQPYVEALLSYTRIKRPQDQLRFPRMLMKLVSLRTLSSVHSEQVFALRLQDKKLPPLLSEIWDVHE

cells [29] = test: cells; remark: listed apart in the source

Cc1ccc(C(=O)O)cc1NC(=S)NC(=O)c1ccc(-c2ccc(Cl)cc2)o1
CC50 [1]: 23.2 µM (active)
IC50 [2]: > 66 µM (inactive)
IC50 [3]: > 66 µM (inactive)
IC50 (cells [4]): 22.8 µM (active)

COc1ccc(NC(=O)C2CCCN(S(=O)(=O)c3cccnc3)C2)cc1 (stereo not given)
IC50 [5]: > 100 µM (not active)

COc1ccc(OC)c(Nc2nc(-c3cccs3)cs2)c1
CC50 [1]: 26.5 µM (active)
CC50 [6]: > 40 µM (active)

Cc1ccc(Cl)cc1N1CCN(C2=C(Cl)C(=O)N(c3ccc(Cl)c(Cl)c3)C2=O)CC1
IC50 [7]: > 100 µM (not active)
IC50 (Bcl-2-related protein A1 [8]): > 100 µM (not active)
IC50 (Bcl-2-related protein A1 [9]): > 100 µM (not active)

O=C(c1ccc2c(=O)n(Cc3ccc4c(c3)OCO4)c(=S)[nH]c2c1)N1CCCCC1
IC50 (Ephrin type-A receptor 4): > 100 µM (not active)

COc1ccc(Cn2c(=O)[nH]c3cc(C(=O)N4CCN(c5ccccc5F)CC4)ccc3c2=O)cc1
CC50 [6]: > 40 µM (active)

Cc1cc(NC(=O)C2CC2)ncc1NC(=O)C12CC3CC(CC(C3)C1)C2
EC50 [10]: 15.7 µM (not active)

O=C(Cc1cccc2ccccc12)Nc1ccccc1C(=O)O
CC50 [1]: 28.8 µM (active)
IC50 (cells [4]): 24.4 µM (active)

Cc1cc(COc2ccccc2OCCN2CCN(C)CC2)no1
IC50 [5]: > 100 µM (not active)

C=CCSc1nc2ccccc2n1C(=O)/C=C/c1cc(OC)c(OC)c(OC)c1
EC50 [10]: 0.27 µM (active)
EC50 (BJ [11]): 2.56 µM (inconclusive)
EC50 [12]: 10.3 µM (inconclusive)
EC50 (BJ [13]): > 150 µM (inconclusive)
EC50 (BJ [14]): 3.4 µM (active)
EC50 [15]: 2.66 µM (active)
IC50 [16]: 71.8 µM (inactive)
AC50 [17]: 1.13 µM (active)
AC50 [18]: 63.8 µM (active)
AC50 [19]: 14.2 µM (active)

C=CCn1c(=O)/c(=C/c2cc(OC)c(OC)c(OC)c2)s/c1=C(/C#N)c1nc2ccccc2n1C
IC50 (Ephrin type-A receptor 4): > 100 µM (not active)
EC50 [20]: 13.3 µM (active)

COc1cccc(/C=N/Nc2snc(SC)c2C#N)c1O
EC50 (BJ [11]): 27 µM (active)
EC50 (Vasopressin V1a receptor): > 29.9 µM (not active)
EC50 (BJ [13]): 40.4 µM (active)
EC50 (Oxytocin receptor): > 29.9 µM (not active)
EC50 (BJ [14]): > 150 µM (not active)
EC50 [15]: 48.3 µM (active)
AC50 (INS1): 3.96 µM (active)

C=CCS/C(N)=N\N=C\c1c(O)ccc2ccccc12
EC50 [21]: 0.313 µM (active)
EC50 [22]: 9.96 µM (active)
EC50 [23]: 0.902 µM (active)
EC50 (H4): < 0.1 µM (active)
EC50 [24]: 0.324 µM (active)
CC50 [25]: > 40 µM (active)
EC50 [26]: 0.426 µM (active)
IC50 [27]: > 122 µM (inactive)
EC50 [28]: > 67.5 µM (inactive)
EC50 (cells [29]): > 67.5 µM (inactive)
